Reference: a melting point compilation (Tetko et al.)

melting point | SMILES
129 to 131 °C | COc1ncc(Br)cc1CC(=O)O
152 to 154 °C | Nc1ccc2cccc(Br)c2n1
121 to 123 °C | CCOC(=O)c1c(N)sc2c1CCNC2
216 to 220 °C | Nn1c(S)nnc1-c1cccs1
124 to 126 °C | Cc1cc(C(=O)N2CCCC2)ccc1N
89 to 91 °C | NCc1cccnc1O
279 to 281 °C | COc1ccc2nc(C)cc(C(=O)O)c2c1
109 to 111 °C | Cc1nnnn1-c1cc(N)ccc1F
109 to 111 °C | CCOC(=O)c1cccnc1SCC(=O)O
50 to 52 °C | CCNC(c1cccnc1)c1ccc2c(c1)CCO2 (stereo not given)
116 to 118 °C | Nc1ccc(Oc2ccc(C(F)(F)F)cc2)nc1
176 to 178 °C | Cc1nn(C)c2ncc(C#N)cc12
145 to 147 °C | Cc1ccc(-n2nc(C)c(NC(=O)OCC(F)(F)F)c2C)cc1
189 to 191 °C | Cc1nc(C(=O)O)nn1-c1ccccc1Cl
274 to 276 °C | O=c1ccc(-c2cccc([N+](=O)[O-])c2)n[nH]1
83 to 85 °C | Cc1c(S(=O)(=O)Cl)sc2cc(Cl)ccc12
212 to 214 °C | Cc1cccc(C)c1NS(=O)(=O)c1ccc(N)cc1
327 to 329 °C | Cn1[nH]c(=O)c2c(=O)cc[nH]c21
112 to 114 °C | Cc1csc(Sc2ccc(N)cc2Cl)n1
112 to 114 °C | COc1cccc(-c2cc(N)n(-c3ccccc3)n2)c1
126 to 128 °C | CC(C)(C)c1nc(C(=O)O)cs1
139 to 141 °C | CCc1cc(=O)[nH]c(-c2cccc(N)c2)n1
79 to 81 °C | CCOC(=O)c1cc(Br)ccc1N
276 to 278 °C | O=C(O)c1cc(-c2ccncc2)on1
144 to 146 °C | Nc1nc(-c2cc(Cl)sc2Cl)cs1
257 to 259 °C | Sc1nnc2c(Cl)cc(Cl)cn12
54 to 58 °C | CCCc1cc(N)on1

melting point | SMILES
219 to 221 °C | O=C(O)c1ccc(Br)c(O)c1
204 to 206 °C | Nc1cc(=O)[nH][nH]1
211 to 213 °C | CCn1cnnc1-c1ccc(C(=O)O)cc1
236 to 238 °C | NS(=O)(=O)c1cc(C(=O)O)ccc1F
147 to 149 °C | Cc1cc(N)nc(C)c1Br
51 to 53 °C | O=Cc1cc(Cl)cc(Cl)c1OC(F)F
69 to 71 °C | COC(=O)c1cccc(C)c1C#N
74 to 76 °C | COC(=O)Cn1ccc(N)n1
84 to 86 °C | CCN(CC)S(=O)(=O)c1cccc(N)c1
172 to 174 °C | Cc1cc(C)c(C(N)=O)c(Cl)n1
241 to 243 °C | COc1cc(N)ccc1S(N)(=O)=O
132 to 134 °C | Cc1nc(S)oc1C
218 to 220 °C | Oc1cccc(-c2cn[nH]c2)c1
198 to 200 °C | O=c1[nH]c(-c2cccc(F)c2)cs1
64 to 66 °C | Nc1ccc(NC(=O)C2CCCO2)cc1C(F)(F)F (stereo not given)
172 to 174 °C | Cc1nc(C(=O)O)nn1-c1ccccc1
110 to 112 °C | Cc1ccc(N2C(=O)NC(=O)C2C)cc1 (stereo not given)
234 to 236 °C | CN(C)c1ccnc(C(=O)O)c1
149 to 151 °C | Cc1ccc2cccnc2c1S(=O)(=O)Cl
143 to 145 °C | COc1cc(C(=O)O)ccc1OCc1ccccc1Cl
172 to 174 °C | COc1ccc(N(C)S(=O)(=O)c2cccc(C(=O)O)c2)cc1
182 to 184 °C | Fc1ccc2nc(NCc3ccccc3)sc2c1
185 to 187 °C | O=C(O)CCc1nc2c(F)cccc2[nH]1
116 to 118 °C | COc1ccc(Br)c(-c2nnc(CCC(=O)O)o2)c1
169 to 171 °C | CCCc1cc(C(=O)O)[nH]n1
82 to 84 °C | Cc1ccc(C#N)cc1S(=O)(=O)Cl

More lines, now with the values behind:

SMILES | melting point
CC(C)C(N)=S | 42 to 44 °C
CS(=O)(=O)CCS(N)(=O)=O | 149 to 151 °C
N#Cc1cccc(CN2C(=O)CSC2=O)c1 | 112 to 114 °C
O=C(O)c1ccc(CN2CCc3ccccc32)cc1 | 182 to 184 °C
O=C(O)CCN1C(=O)NC2(CCCCC2)C1=O | 100 to 102 °C
CCn1c(=O)c2ccccc2n2c(CCl)nnc12 | 195 to 197 °C
O=S(CCCl)c1ccccc1 (stereo not given) | 34 to 36 °C
CC(C)(C)OC(=O)NCC1CCCCC1N (stereo not given) | 61 to 63 °C
CC(C)(C)OC(=O)NCC1CC2CCCC(C1)N2 (stereo not given) | 219 to 221 °C
O=C(O)C1C2C=CC(C2)C1C(=O)N1CCN(CCO)CC1 (stereo not given) | 192 to 194 °C
CC(C)(C)OC(=O)NC(CO)CO | 83 to 85 °C
NC(Cc1ccccc1)(C(=O)O)c1ccccc1 (stereo not given) | 264 to 266 °C
COc1cc(C(C[N+](=O)[O-])c2c[nH]c3ccccc23)ccc1O (stereo not given) | 115 to 117 °C
O=Cc1ccccc1-n1cncn1 | 113 to 115 °C
O=C1C=CC(=O)N1c1cccc2cnccc12 | 134 to 136 °C
CCCn1c(=O)[nH]c2ccccc21 | 96 to 100 °C
O=C(O)Cc1ccc(S(=O)(=O)CC(F)F)cc1 | 135 to 137 °C
Clc1nccn2cnnc12 | 195 to 197 °C
O=C(CCl)c1cc2c3c(c1)CC(=O)N3CCC2 | 159 to 161 °C
CCS(=O)(=O)Nc1ccccc1F | 68 to 70 °C
NC(=O)c1ccc(C(=O)O)s1 | 317 to 319 °C
O=C(O)CCNc1ccccc1 | 56 to 60 °C
O=C(O)CCCCN1C(=O)C=CC1=O | 84 to 86 °C
NC(=NOC(=O)CCCCl)c1cccs1 | 144 to 146 °C
O=C(O)CCc1ccc2c(c1)OCCO2 | 64 to 66 °C
CC1CNc2ccccc2C(=O)N1 (stereo not given) | 189 to 191 °C

SMILES | melting point
NS(=O)(=O)c1ccc(NCCC(=O)O)c([N+](=O)[O-])c1 | 175 to 177 °C
CCC(C)C(N)C(N)=O (stereo not given) | 76 to 78 °C
O=C(O)c1ccc(S(=O)(=O)N2CCCCCC2)cc1 | 235 to 237 °C
C#CCNC(=O)CC(=O)O | 64 to 66 °C
O=C1CSCc2ccccc21 | 56 to 58 °C
O=C(O)C#Cc1ccc2c(c1)OCO2 | 165 to 167 °C
N#Cc1ccc(OCc2cccc(C(=O)O)c2)cc1 | 221 to 223 °C
O=C(O)Cc1cccc(OCC(F)(F)F)c1 | 99 to 101 °C
CCC(Nc1ccccc1)C(N)=O (stereo not given) | 122 to 124 °C
CC(C)C(NC1=NS(=O)(=O)c2ccccc21)C(=O)O (stereo not given) | 234 to 236 °C
O=C(O)CNC(=O)c1ccc(Br)o1 | 91 to 93 °C
O=C(Cc1ccccc1)C[N+](=O)[O-] | 48 to 50 °C
Fc1cccc2c1CCCN2 | 45 to 47 °C
O=[N+]([O-])c1cccc(Sc2ccccc2)c1 | 38 to 40 °C
O=C(c1cc2ccccc2cc1O)N1CCOCC1 | 216 to 218 °C
CC1CCN(C(=O)c2ccc(Cl)nc2)CC1 | 69 to 71 °C
O=S(=O)(c1ccc(Cl)c(N=C=S)c1)N1CCOCC1 | 118 to 120 °C
Cn1ncnc1COc1ccc(S(=O)(=O)Cl)cc1 | 114 to 116 °C
CC1N=C(S)N(Cc2ccccc2)C1=O (stereo not given) | < 17 °C
O=S1(=O)C=C(Nc2ccccc2)CC1 | 153 to 155 °C
O=C(O)c1ncoc1C(F)(F)F | 94 to 96 °C
NC(=O)C1CNc2ccccc21 (stereo not given) | 150 to 152 °C
CC(C)C1(C(=O)O)CC1 | 54 to 56 °C
O=C1CC2CCC(C1)N2c1ccccc1 | 89 to 91 °C
O=C(O)C1CCCN1c1ncc(C(F)(F)F)cc1Cl (stereo not given) | 99 to 101 °C
O=C(O)CNC(=O)NC1CC1 | 179 to 181 °C
